Patent publication US20130060024A1, “Compounds useful for treating neurodegenerative disorders” (SATORI PHARMACEUTICALS, INC., priority 2011, published 2013)
pIC50: −log10 of the molar value. Where two headings read alike, the source gives them in different places.

Experiments:
Type in all cases: cell-based
Conditions in all cases: Homo sapiens
[1] = system: Aβ-38; test: Aβ-38 MSD 3-PLEX ELISA, conditioned media of 2B7 cells
Experimental: (§1) Assays were conducted to determine the ability of a Compound of Formula I to modulate […], […], and Aβ-38. Human (6E10) Ab 3-PLEX ELISA kits were purchased from Meso Scale Discovery Labs, 9328 Gaither Road, Gaithersburg, Md. 20877 (Catalog Number […]-3). Plates with capture antibodies were blocked for 1-2 hours at room temperature with 150 μL of the manufactures blocking reagent. Cultured 2B7 cells in 96 well plate with 250 μL of media per well until confluent; Prepared serial dilutions of compounds in DMSO at 100× the final desired concentration; Washed wells with 2B7 cells 1× with 250 μL of media; Diluted DMSO stocks 1:100 into media: Added 250 μL of media containing compounds (1% DMSO) to wells with 2B7 cells for 5 hours at 37° C. Diluted conditioned media: 1 part media with 1% DMSO and 1 part blocking buffer; 150 μL of the 250 μL of conditioned media were used. Seven point standard curve samples were prepared that contained Aβ-42, Aβ-40, and Aβ-38. The highest concentration of Aβ-42 and Aβ-38 was 3,000 pg/mL and the highest concentration of Aβ-40 was 10,000 pg/mL. Subsequent serial dilutions were 1:3 and the final composition of each sample was 1 part blocking buffer and 1 part cell medium containing 1% DMSO. Blocked plates are washed 5× with MSD wash buffer with a plate washer; 25 μL of detection antibody and blocker G reagent in MSD blocking solution was added; 25 μL of samples (1 part conditioned media containing 1% DMSO and 1 part MSD blocking buffer) were then added; Plates were incubated overnight at 4 degrees C. or 2 hours at room temperature. Washed wells 5× with MSD wash buffer; Added 150 μL 2×MSD read buffer; Read with MSD imager. Aβ peptide levels for each peptide were calculated from the standard curve using the MSD software provided with the MSD 2400 Imager. Percent vehicle values for each compound dosage were then calculated and fit to a 4 parameter curve generating IC50 values.

[2] = system: Aβ-42; test: Aβ-42 MSD 3-PLEX ELISA, conditioned media of 2B7 cells
Experimental: as §1

[3] = system: Aβ-40; test: Aβ-40 MSD 3-PLEX ELISA, conditioned media of 2B7 cells
Experimental: as §1

[4] = 2B7 cells, 5 hours at 37° C., 1% DMSO, read-out: Aβ 38 IC50
[5] = 2B7 cells, 5 hours at 37° C., 1% DMSO, read-out: Aβ 42 IC50
[6] = 5 h, read-out: Aβ 38 DR IC50 Inflection
[7] = 5 h, read-out: Aβ 40 DR IC50 Inflection
[8] = 2B7 cells, 5 hours at 37° C., 1% DMSO, read-out: Aβ 40 IC50
[9] = 5 h, read-out: Aβ 42 DR IC50 Inflection

| SMILES | pIC50 [1, 4] | pIC50 [2, 5] | pIC50 [1, 6] | pIC50 [3, 7] | pIC50 [3, 8] | pIC50 [2, 9] |
| --- | --- | --- | --- | --- | --- | --- |
| CCO[C@@H]([C@H]1C[C@@H](C)[C@H]2[C@H](O1)[C@H](O)[C@@]1(C)[C@@H]3CC[C@H]4C(C)(C)[C@@H](OC(=O)NCCNS(=O)(=O)C(F)(F)F)CC[C@@]45C[C@@]35CC[C@]21C)C(C)(C)O [Compound I-1] | 5.30 to 6.00 | 6.00 to 6.30 |  |  |  |  |
| CCO[C@@H]([C@H]1C[C@@H](C)[C@H]2[C@H](O1)[C@H](O)[C@@]1(C)[C@@H]3CC[C@H]4C(C)(C)[C@@H](OC(=O)N(C)C5CN(C)C5)CC[C@@]45C[C@@]35CC[C@]21C)C(C)(C)O [Compound I-2] | 6.30 to 7.00 | > 7.00 | > 7.00 | < 5.30 | 5.30 to 6.00 | > 7.00 |
| CCO[C@@H]([C@H]1C[C@@H](C)[C@H]2[C@H](O1)[C@H](O)[C@@]1(C)[C@@H]3CC[C@H]4C(C)(C)[C@@H](OC(=O)N5CCNC(C(F)(F)F)C5)CC[C@@]45C[C@@]35CC[C@]21C)C(C)(C)O (stereo partly shown) [Compound I-3] | 5.30 to 6.00 | 6.30 to 7.00 |  |  |  |  |
| CCO[C@@H]([C@H]1C[C@@H](C)[C@H]2[C@H](O1)[C@H](O)[C@@]1(C)[C@@H]3CC[C@H]4C(C)(C)[C@@H](OC(=O)N5CCN(C6COC6)CC5)CC[C@@]45C[C@@]35CC[C@]21C)C(C)(C)O [Compound I-4] | 5.30 to 6.00 | 6.30 to 7.00 |  |  | < 5.30 | 6.30 to 7.00 |
| CCO[C@@H]([C@H]1C[C@@H](C)[C@H]2[C@H](O1)[C@H](O)[C@@]1(C)[C@@H]3CC[C@H]4C(C)(C)[C@@H](OC(=O)N5CCN(CC(=O)O)CC5)CC[C@@]45C[C@@]35CC[C@]21C)C(C)(C)O [Compound I-5] |  | 6.30 to 7.00 |  |  | < 5.30 | 6.30 to 7.00 |
| CCO[C@@H]([C@H]1C[C@@H](C)[C@H]2[C@H](O1)[C@H](O)[C@@]1(C)[C@@H]3CC[C@H]4C(C)(C)[C@@H](OC(=O)N(C)CC(=O)O)CC[C@@]45C[C@@]35CC[C@]21C)C(C)(C)O [Compound I-6] |  | 6.00 to 6.30 |  |  |  |  |
| CCO[C@@H]([C@H]1C[C@@H](C)[C@H]2[C@H](O1)[C@H](O)[C@@]1(C)[C@@H]3CC[C@H]4C(C)(C)[C@@H](OC(=O)N5CCN(CCOC)CC5)CC[C@@]45C[C@@]35CC[C@]21C)C(C)(C)O [Compound I-7] | 6.00 to 6.30 | 6.30 to 7.00 |  |  |  | 6.30 to 7.00 |
| CCO[C@@H]([C@H]1C[C@@H](C)[C@H]2[C@H](O1)[C@H](O)[C@@]1(C)[C@@H]3CC[C@H]4C(C)(C)[C@@H](OC(=O)N5CCN(C)CC5)CC[C@@]45C[C@@]35CC[C@]21C)C(C)(C)O [Compound I-8] | 6.30 to 7.00 | > 7.00 | > 7.00 | < 5.30 | 5.30 to 6.00 | > 7.00 |
| CCO[C@@H]([C@H]1C[C@@H](C)[C@H]2[C@H](O1)[C@H](O)[C@@]1(C)[C@@H]3CC[C@H]4C(C)(C)[C@@H](OC(=O)N5CC(NC)C5)CC[C@@]45C[C@@]35CC[C@]21C)C(C)(C)O [Compound I-9] | 6.30 to 7.00 | 6.30 to 7.00 | 6.30 to 7.00 |  | 5.30 to 6.00 | 6.30 to 7.00 |
| CCO[C@@H]([C@H]1C[C@@H](C)[C@H]2[C@H](O1)[C@H](O)[C@@]1(C)[C@@H]3CC[C@H]4C(C)(C)[C@@H](OC(=O)N5CCNCC5)CC[C@@]45C[C@@]35CC[C@]21C)C(C)(C)O [Compound I-10] | 6.30 to 7.00 | > 7.00 |  |  |  |  |
| CCO[C@@H]([C@H]1C[C@@H](C)[C@H]2[C@H](O1)[C@H](O)[C@@]1(C)[C@@H]3CC[C@H]4C(C)(C)[C@@H](OC(=O)NCCN(C)C)CC[C@@]45C[C@@]35CC[C@]21C)C(C)(C)O [Compound I-11] |  | 6.30 to 7.00 |  |  |  | 6.30 to 7.00 |
| CCO[C@@H]([C@H]1C[C@@H](C)[C@H]2[C@H](O1)[C@H](O)[C@@]1(C)[C@@H]3CC[C@H]4C(C)(C)[C@@H](OC(=O)NCCN5CCOCC5)CC[C@@]45C[C@@]35CC[C@]21C)C(C)(C)O [Compound I-12] | 5.30 to 6.00 | 6.30 to 7.00 |  |  | < 5.30 | 6.30 to 7.00 |
| CCO[C@@H]([C@H]1C[C@@H](C)[C@H]2[C@H](O1)[C@H](O)[C@@]1(C)[C@@H]3CC[C@H]4C(C)(C)[C@@H](OC(=O)NCCN5CC(OC)C5)CC[C@@]45C[C@@]35CC[C@]21C)C(C)(C)O [Compound I-13] | 5.30 to 6.00 | 6.30 to 7.00 |  |  |  | 6.30 to 7.00 |
| CCO[C@@H]([C@H]1C[C@@H](C)[C@H]2[C@H](O1)[C@H](O)[C@@]1(C)[C@@H]3CC[C@H]4C(C)(C)[C@@H](OC(=O)NCCN5CC(F)C5)CC[C@@]45C[C@@]35CC[C@]21C)C(C)(C)O [Compound I-14] |  | 6.30 to 7.00 |  |  |  | 6.30 to 7.00 |
| CCO[C@@H]([C@H]1C[C@@H](C)[C@H]2[C@H](O1)[C@H](O)[C@@]1(C)[C@@H]3CC[C@H]4C(C)(C)[C@@H](OC(=O)NCCN5CC(O)C5)CC[C@@]45C[C@@]35CC[C@]21C)C(C)(C)O [Compound I-15] |  | 6.30 to 7.00 |  |  |  | 6.30 to 7.00 |
| CCO[C@@H]([C@H]1C[C@@H](C)[C@H]2[C@H](O1)[C@H](O)[C@@]1(C)[C@@H]3CC[C@H]4C(C)(C)[C@@H](OC(=O)NCCN5CCC5)CC[C@@]45C[C@@]35CC[C@]21C)C(C)(C)O [Compound I-16] |  | 6.30 to 7.00 |  |  |  | 6.30 to 7.00 |
| CCO[C@@H]([C@H]1C[C@@H](C)[C@H]2[C@H](O1)[C@H](O)[C@@]1(C)[C@@H]3CC[C@H]4C(C)(C)[C@@H](OC(=O)NCCN5CCN(C6COC6)CC5)CC[C@@]45C[C@@]35CC[C@]21C)C(C)(C)O [Compound I-17] | 6.30 to 7.00 | 6.30 to 7.00 |  |  | 5.30 to 6.00 | 6.30 to 7.00 |
| CCO[C@@H]([C@H]1C[C@@H](C)[C@H]2[C@H](O1)[C@H](O)[C@@]1(C)[C@@H]3CC[C@H]4C(C)(C)[C@@H](OC(=O)NCCN5CC(F)(F)C5)CC[C@@]45C[C@@]35CC[C@]21C)C(C)(C)O [Compound I-18] | 6.00 to 6.30 | 6.30 to 7.00 |  |  | < 5.30 | 6.30 to 7.00 |
| CCO[C@@H]([C@H]1C[C@@H](C)[C@H]2[C@H](O1)[C@H](O)[C@@]1(C)[C@@H]3CC[C@H]4C(C)(C)[C@@H](OC(=O)NCCN5CCN(C6CCC6)CC5)CC[C@@]45C[C@@]35CC[C@]21C)C(C)(C)O [Compound I-19] |  | 6.30 to 7.00 |  |  |  | 6.30 to 7.00 |
| CCO[C@@H]([C@H]1C[C@@H](C)[C@H]2[C@H](O1)[C@H](O)[C@@]1(C)[C@@H]3CC[C@H]4C(C)(C)[C@@H](OC(=O)N5CC(N6CCC6)C5)CC[C@@]45C[C@@]35CC[C@]21C)C(C)(C)O [Compound I-20] | 6.30 to 7.00 | > 7.00 |  |  |  |  |
| CCO[C@@H]([C@H]1C[C@@H](C)[C@H]2[C@H](O1)[C@H](O)[C@@]1(C)[C@@H]3CC[C@H]4C(C)(C)[C@@H](OC(=O)N5CC(N6CC(OC)C6)C5)CC[C@@]45C[C@@]35CC[C@]21C)C(C)(C)O [Compound I-21] | 6.00 to 6.30 | 6.30 to 7.00 |  |  |  | 6.30 to 7.00 |
| CCO[C@@H]([C@H]1C[C@@H](C)[C@H]2[C@H](O1)[C@H](O)[C@@]1(C)[C@@H]3CC[C@H]4C(C)(C)[C@@H](OC(=O)NC5CN(C6CCC6)C5)CC[C@@]45C[C@@]35CC[C@]21C)C(C)(C)O [Compound I-22] | 6.00 to 6.30 | 6.30 to 7.00 |  |  | 5.30 to 6.00 | 6.30 to 7.00 |
| CCO[C@@H]([C@H]1C[C@@H](C)[C@H]2[C@H](O1)[C@H](O)[C@@]1(C)[C@@H]3CC[C@H]4C(C)(C)[C@@H](OC(=O)NC5CN(C6CN(C7CCC7)C6)C5)CC[C@@]45C[C@@]35CC[C@]21C)C(C)(C)O [Compound I-23] | 6.00 to 6.30 | 6.30 to 7.00 |  |  |  |  |
| CCO[C@@H]([C@H]1C[C@@H](C)[C@H]2[C@H](O1)[C@H](O)[C@@]1(C)[C@@H]3CC[C@H]4C(C)(C)[C@@H](OC(=O)NCCN5CCN(CC(F)F)CC5)CC[C@@]45C[C@@]35CC[C@]21C)C(C)(C)O [Compound I-24] |  | 6.30 to 7.00 |  |  | 5.30 to 6.00 | 6.30 to 7.00 |
